Laboratory results as given in patent publication US9340492B2, “Meta-Diarylaniline or meta-diarylpyridinamine compound, preparation method and medical uses thereof” (INSTITUTE OF PHARMACOLOGY AND TOXICOLOGY ACADEMY OF …, priority 2012, dated 2016).

Tests used:
Type in all cases: cell-based
[1] = tested on: NL4-3 virus (HIV, wild-type); assay: Anti-HIV activity assay (TZM-bl cell model), NL4-3 wild-type; settings: human, TZM-bl cells infected with HIV-1 NL4-3 virus; CC50 (TZM-bl) / EC50 (NL4-3); read-out: SI, selective index, ratio of toxic CC50 value to active EC50 value
Experimental: (§1) The assay was carried out by reference to the document (Dang, Z, et al. J. Med. Chem. 2009, 52, 7887-7891). In particular, in a 96-well cell culture plate, solutions of the compounds to be tested at different concentrations were mixed with TZM-bl cells (from National Institutes of Health (NIH)) infected with 200 TCID50 NL4-3 virus, respectively. 2 days later, the culture medium was removed, 100 μl of Bright Glo reagent was added to each well, and Victor 2 luminometer was used to detect the […] of the cells.

NL4-3 virus = assay: as above; settings: Human immunodeficiency virus 1, NL43; NL4-3 HIV wild-type, TZM-bl cells; read-out: EC50, concentration effective to inhibit the replication of half of viruses
Experimental: as §1

[2] = TZM-bl cytotoxicity assay (XTT); settings: human, TZM-bl cells, read-out: CC50, concentration effective to inhibit the growth of half of cells
Experimental: The assay was carried out by reference to the document (Dang, Z, et al. J. Med. Chem. 2009, 52, 7887-7891). In particular, in a 96-well cell culture plate, solutions of Compounds 1-57 at different concentrations (100 μl) were mixed with an equivalent volume of TZM-bl cells (from National Institutes of Health (NIH)) (5×10^5/mL), and were incubated at 37° C. for 4 d. 50 μl of freshly prepared XTT solution (1 mg/mL) containing 0.02 μM PMS was added. Optical density at 450 nm was measured 4 h later.

SMILES | EC50 (NL4-3 virus) [nM] | selectivity ratio at 2 days [1] | CC50 at 4 d [2] [nM]
Cc1cc(CCC#N)cc(C)c1Oc1cc(Nc2ccc(C#N)cc2)c(N)cc1C(N)=O [Compound 10, 4-carbamoyl-N^1-(4′-cyanophenyl)-5-(4″-cyanoethyl-2″,6″-dimethylphenoxy)-1,2-phenylenediamine] | 1.39 | > 6760 | > 9400
N#CCCc1cc(F)c(Oc2ccc(N)c(Nc3ccc(C#N)cc3)n2)c(F)c1 [Compound 21, N^2-(4-cyanoanilinyl)-6-(2,6-difluoro-4-cyanoethyl-phenoxy)-3-aminopyridine] | 2.8 | > 3640 | > 10200
COC(=O)CCc1cc(F)c(Oc2ccc(N)c(Nc3ccc(C#N)cc3)n2)c(F)c1 [Compound 23, N^2-(4-cyanoanilinyl)-6-(2,6-difluoro-4-methyl propionatephenoxy)-3-aminopyridine] | 99 | > 155 | > 15300
COc1cc(/C=C/C#N)cc(Br)c1Oc1ccc(N)c(Nc2ccc(C#N)cc2)n1 [Compound 26B] | 25.7 | 1210 | 21300
CC(=O)CCc1cc(F)c(Oc2ccc(N)c(Nc3ccc(C#N)cc3)n2)c(F)c1 [Compound 30, N^2-(4-cyanoanilinyl)-6-(2,6-difluoro-4-(2-butanonyl)phenoxy)-3-aminopyridine] | 4.7 | > 2130 | > 9800
Cc1cc(CCC#N)cc(C)c1Oc1cc(Nc2ccc(C#N)cc2)c(N)cc1COC(=O)C1CC1 [Compound 39, N^1-(4′-cyanophenyl)-5-(4″-cyanoethyl-2″,6″-dimethylphenoxy)-4-cyclopropionyloxymethyl-1,2-phenylenediamine] | 1.63 | > 3070 | > 5000
Cc1cc(CCC#N)cc(C)c1Oc1cc(Nc2ccc(C#N)cc2)c(N)cc1CN(C)C [Compound 40, N^1-(4′-cyanophenyl)-5-(4″-cyanoethyl-2″,6″-dimethylphenoxy)-4-[N,N-dimethylaminomethyl]-1,2-phenylenediamine] | 2.73 | > 1830 | > 5000

Continued, in another order:

EC50 (NL4-3 virus) [nM] | SMILES | selectivity ratio at 2 days [1] | CC50 at 4 d [2] [nM]
14.7 | CCCc1cc(C)c(Oc2ccc(N)c(Nc3ccc(C#N)cc3)n2)c(C)c1 [Compound 16, N^2-(4-cyanoanilinyl)-6-(2,6-dimethyl-4-propylphenoxy)-3-aminopyridine] | 1120 | 16400
10 | Cc1cc(CO)cc(C)c1Oc1cc(Nc2ccc(C#N)cc2)c(N)cc1CO [Compound 18, N^1-(4′-cyanophenyl)-5-(4″-hydroxymethyl-2″,6″-dimethylphenoxy)-4-hydroxymethyl-1,2-phenylenediamine] | > 1590 | > 15900
48 | N#Cc1ccc(Nc2nc(Oc3c(F)cc(CCCO)cc3F)ccc2N)cc1 [Compound 24, N^2-(4-cyanoanilinyl)-6-(2,6-difluoro-4-(3-hydroxypropyl)phenoxy)-3-aminopyridine] | > 525 | > 25200
19.1 | Cc1cc(CCC#N)cc(C)c1Oc1cc(Nc2ccc(C#N)cc2)c(N)cc1C(=O)NN [Compound 36, 5-(4″-cyanoethyl-2″,6″-dimethylphenoxy)-N^1-(4′-cyanophenyl)-4-formhydrazide-1,2-phenylenediamine] | > 1190 | > 22700
3.29 | CC(=O)OCc1cc(N)c(Nc2ccc(C#N)cc2)cc1Oc1c(C)cc(CCC#N)cc1C [Compound 37, 4-acetyloxymethyl-N^1-(4′-cyanophenyl)-5-(4″-cyanoethyl-2″,6″-dimethylphenoxy)-1,2-phenylenediamine] | > 1520 | > 5000
2.18 | COCc1cc(N)c(Nc2ccc(C#N)cc2)cc1Oc1c(C)cc(CCC#N)cc1C [Compound 38, N^1-(4′-cyanophenyl)-5-(4″-cyanoethyl-2″,6″-dimethylphenoxy)-4-methoxymethyl-1,2-phenylenediamine] | > 2290 | > 5000
